According to patent US20240101540A1, “TARGETED PROTEIN DEGRADATION OF PARP14 FOR USE IN THERAPY” (Ribon Therapeutics, Inc., priority 2022, published 2024):
Structures can show the parent of a compound that is named as a salt.

Target: T1, HiBiT tagged PARP14 (Homo sapiens, UniProt Q460N5)
T1 construct: engineered to contain a HiBiT tag on both alleles of the PARP14 gene; endogenous in cells; host or cells: Jurkat cells stably transfected with LgBiT (Promega), PARP14 locus edited by CRISPR/Cas9
Assay: HiBiT assay for the degradation of PARP14 (HiBiT tagged PARP14 in LgBiT expressing Jurkat cells, 2 or 24 hours)
Format: cell-based
Conditions: Assay B (Example B): HiBiT tagged PARP14 degradation in LgBiT expressing Jurkat cells, read-out: DC50
Description: Jurkat cells stably transfected with LgBiT (Promega) were engineered to contain a HiBiT tag on both alleles of the PARP14 gene (Genbank Accession Number: NM_017554) via CRISPR/Cas9 editing. The HiBiT tag is an 11 amino acid tag created by Promega that associates with LgBiT protein to form the NanoLuc® tag on the C-terminus of PARP14. Clones were isolated and confirmed for the HiBiT tag via Sanger sequencing.
Degradation of PARP14 protein was assessed by measuring the luminescence of the HiBiT tag associating with the LgBiT protein as a proxy for the PARP14 protein.
Jurkat cells were diluted to 250,000 cells per mL and then added to assay plate (Corning 3574) using a Multidrop (Thermo Fisher) to add 20 μL per well of the 384 well plate, resulting in 5,000 cells per well. 20 nL of a dose response curve diluted in DMSO of each test compound was added to the cell plate using a Mosquito (TTP Labtech) and the plate was incubated at 37° C. for 2 or 24 hours. Assay plate was brought to room temperature then 5 μL per well of Live Cell Substrate (Promega) was added to the plate. Luminescence was measured on an Envision (Perkin Elmer).
The average DMSO was calculated from 32 wells containing 0.1% DMSO only in columns 12 and 24 of the assay plate. The % of DMSO values were calculated as described below: […]
The % of DMSO values were plotted as a function of compound concentration and the following 4-parameter fit was applied to derive the DC50 values:
where top, bottom, and Hill Coefficient are allowed to float. Y is the % of DMSO and X is the compound concentration.
DC50 data for the Example compounds is provided below in Table 2 (“+” is ≤0.03 μM; “++” is ≥0.03 μM).

T1 sequence (Q460N5 whole entry): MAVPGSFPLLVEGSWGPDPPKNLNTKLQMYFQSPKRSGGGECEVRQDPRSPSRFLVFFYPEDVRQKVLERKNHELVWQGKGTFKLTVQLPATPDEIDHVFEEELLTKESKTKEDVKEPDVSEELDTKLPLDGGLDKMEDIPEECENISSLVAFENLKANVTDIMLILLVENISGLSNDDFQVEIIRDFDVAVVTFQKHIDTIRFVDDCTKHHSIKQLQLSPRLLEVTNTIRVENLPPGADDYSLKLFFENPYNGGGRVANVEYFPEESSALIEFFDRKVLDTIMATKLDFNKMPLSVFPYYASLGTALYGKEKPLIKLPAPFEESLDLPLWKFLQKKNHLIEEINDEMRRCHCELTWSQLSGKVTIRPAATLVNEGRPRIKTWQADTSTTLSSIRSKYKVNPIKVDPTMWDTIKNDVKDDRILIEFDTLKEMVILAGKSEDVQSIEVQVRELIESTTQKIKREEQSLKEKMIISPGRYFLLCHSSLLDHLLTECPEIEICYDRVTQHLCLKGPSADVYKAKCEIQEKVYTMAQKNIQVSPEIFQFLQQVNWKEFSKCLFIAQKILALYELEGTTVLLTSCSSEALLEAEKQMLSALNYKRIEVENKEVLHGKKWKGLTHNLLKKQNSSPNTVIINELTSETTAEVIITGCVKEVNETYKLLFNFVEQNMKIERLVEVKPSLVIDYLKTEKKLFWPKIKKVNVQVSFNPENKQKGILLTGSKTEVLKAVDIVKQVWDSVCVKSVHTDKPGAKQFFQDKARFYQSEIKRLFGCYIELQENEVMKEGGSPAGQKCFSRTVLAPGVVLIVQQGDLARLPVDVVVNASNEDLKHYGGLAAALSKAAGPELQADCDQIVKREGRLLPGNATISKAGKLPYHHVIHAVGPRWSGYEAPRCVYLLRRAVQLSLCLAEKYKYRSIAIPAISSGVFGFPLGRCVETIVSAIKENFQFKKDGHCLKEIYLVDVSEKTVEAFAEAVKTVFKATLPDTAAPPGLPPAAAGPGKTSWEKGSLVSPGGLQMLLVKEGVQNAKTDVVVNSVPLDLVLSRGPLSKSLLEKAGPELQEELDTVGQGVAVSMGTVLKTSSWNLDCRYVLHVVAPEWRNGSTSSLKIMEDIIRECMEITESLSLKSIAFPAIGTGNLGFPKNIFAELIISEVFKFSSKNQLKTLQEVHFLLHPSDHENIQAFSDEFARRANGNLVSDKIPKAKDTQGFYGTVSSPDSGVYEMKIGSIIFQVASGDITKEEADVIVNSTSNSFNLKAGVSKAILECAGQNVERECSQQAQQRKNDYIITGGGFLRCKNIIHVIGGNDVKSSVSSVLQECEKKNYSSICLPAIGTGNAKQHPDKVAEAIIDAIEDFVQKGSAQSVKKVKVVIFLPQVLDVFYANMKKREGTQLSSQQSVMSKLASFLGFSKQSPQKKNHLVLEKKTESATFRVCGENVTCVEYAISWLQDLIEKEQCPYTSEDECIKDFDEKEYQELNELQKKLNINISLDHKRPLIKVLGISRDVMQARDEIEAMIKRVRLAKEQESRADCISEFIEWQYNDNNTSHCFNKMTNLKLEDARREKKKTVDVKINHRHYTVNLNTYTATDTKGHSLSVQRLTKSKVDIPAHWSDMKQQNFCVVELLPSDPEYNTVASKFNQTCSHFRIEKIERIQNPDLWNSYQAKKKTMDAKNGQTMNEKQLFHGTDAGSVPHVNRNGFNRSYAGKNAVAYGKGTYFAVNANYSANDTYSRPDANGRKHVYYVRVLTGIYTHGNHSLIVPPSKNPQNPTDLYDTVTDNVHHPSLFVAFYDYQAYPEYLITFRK

Row | Structure (SMILES) | DC50
1 | O=C1CCC(Nc2ccc(N3CCC(N4CC(CN5CCC(COc6cc(F)c7c(=O)[nH]c(CSC8CCOCC8)nc7c6)CC5)C4)CC3)c(F)c2)C(=O)N1 (centres unmarked) [Example 232, 3-((3-fluoro-4-(4-(3-((4-(((5-fluoro-4-oxo-2-(((tetrahydro-2H-pyran-4-yl)thio)methyl)-3,4-dihydroquinazolin-7-yl)oxy)methyl)piperidin-1-yl)methyl)azetidin-1-yl)piperidin-1-yl)phenyl)amino)piperidine-2,6-dione] | < 30 nM
2 | Cn1nc(N2CCC(=O)NC2=O)c2ccc(N3CCC(COc4cc(F)c5c(=O)[nH]c(COC6CCOCC6)nc5c4)CC3)cc21 [Example 184, 1-(6-(4-(((5-fluoro-4-oxo-2-(((tetrahydro-2H-pyran-4-yl)oxy)methyl)-3,4-dihydroquinazolin-7-yl)oxy)methyl)piperidin-1-yl)-1-methyl-1H-indazol-3-yl)dihydropyrimidine-2,4(1H,3H)-dione] | < 30 nM
3 | O=C1CCC(Nc2ccc(N3CCN(CCN4CC(COc5cc(F)c6c(=O)[nH]c(CSC7CCOCC7)nc6c5)C4)CC3)c(F)c2)C(=O)N1 (centres unmarked) [Example 193, 3-((3-fluoro-4-(4-(2-(3-(((5-fluoro-4-oxo-2-(((tetrahydro-2H-pyran-4-yl)thio)methyl)-3,4-dihydroquinazolin-7-yl)oxy)methyl)azetidin-1-yl)ethyl)piperazin-1-yl)phenyl)amino)piperidine-2,6-dione] | < 30 nM
4 | O=C1CCC(Nc2ccc(N3CCC(N4CCC(COc5cc(F)c6c(=O)[nH]c(CCC7CCOCC7)nc6c5)CC4)CC3)c(F)c2)C(=O)N1 (single isomer, unassigned) [Example 117a, 3-((3-fluoro-4-(4-(((5-fluoro-4-oxo-2-(2-(tetrahydro-2H-pyran-4-yl)ethyl)-3,4-dihydroquinazolin-7-yl)oxy)methyl)-[1,4′-bipiperidin]-11′-yl)phenyl)amino)piperidine-2,6-dione] | < 30 nM
5 | O=C1CCC(NC(=O)C23CC(N4CCN(CCN5CCC(COc6cc(F)c7c(=O)[nH]c(CSC8CCOCC8)nc7c6)CC5)CC4)(C2)C3)C(=O)N1 (centres unmarked) [Example 134, N-(2,6-dioxopiperidin-3-yl)-3-(4-(2-(4-(((5-fluoro-4-oxo-2-(((tetrahydro-2H-pyran-4-yl)thio)methyl)-3,4-dihydroquinazolin-7-yl)oxy)methyl)piperidin-1-yl)ethyl)piperazin-1-yl)bicyclo[1.1.1]pentane-1-carboxamide] | < 30 nM
6 | O=C1CCC(Nc2ccc(N3CCN(CCN4CCC(COc5cc(F)c6c(=O)[nH]c(CSC7CCOCC7)nc6c5)CC4)CC3)c(F)c2)C(=O)N1 (single isomer, unassigned) [Example 64b, 3-((3-fluoro-4-(4-(2-(4-(((5-fluoro-4-oxo-2-(((tetrahydro-2H-pyran-4-yl)thio)methyl)-3,4-dihydroquinazolin-7-yl)oxy)methyl)piperidin-1-yl)ethyl)piperazin-1-yl)phenyl)amino)piperidine-2,6-dione] | < 30 nM
7 | O=C1CCN(c2ccc(F)c(N3CCC(N4CC(N5CCC(COc6cc(F)c7c(=O)[nH]c(CSC8CCOCC8)nc7c6)CC5)C4)CC3)c2)C(=O)N1 [Example 165, 1-(4-fluoro-3-(4-(3-(4-(((5-fluoro-4-oxo-2-(((tetrahydro-2H-pyran-4-yl)thio)methyl)-3,4-dihydroquinazolin-7-yl)oxy)methyl)piperidin-1-yl)azetidin-1-yl)piperidin-1-yl)phenyl)dihydropyrimidine-2,4(1H,3H)-dione] | < 30 nM
8 | O=C1CCC(Nc2ccc(N3CCN(CCN4CCC(COc5cc(F)c6c(=O)[nH]c(CSC7CCOCC7)nc6c5)CC4)CC3)cn2)C(=O)N1 (centres unmarked) [Example 119] | < 30 nM
9 | O=C1CCC(Nc2ccc(N3CCN(CCN4CCC(COc5cc(F)c6c(=O)[nH]c(COC7CCOCC7)nc6c5)CC4)CC3)c(F)c2)C(=O)N1 (single isomer, unassigned) [Example 99b, 3-((3-fluoro-4-(4-(2-(4-(((5-fluoro-4-oxo-2-(((tetrahydro-2H-pyran-4-yl)oxy)methyl)-3,4-dihydroquinazolin-7-yl)oxy)methyl)piperidin-1-yl)ethyl)piperazin-1-yl)phenyl)amino)piperidine-2,6-dione] | < 30 nM
10 | O=C1CCC(Nc2ccc(N3CCN(CCN4CCC(COc5cc(F)c6c(=O)[nH]c(CSC7CCOCC7)nc6c5)CC4)CC3)c(Cl)c2)C(=O)N1 (centres unmarked) [Example 137] | < 30 nM
11 | O=C1CCN(c2ccc(N3CCC(N4CC(N5CCC(COc6cc(F)c7c(=O)[nH]c(CSC8CCOCC8)nc7c6)CC5)C4)CC3)c(F)c2)C(=O)N1 [Example 157, 1-(3-fluoro-4-(4-(3-(4-(((5-fluoro-4-oxo-2-(((tetrahydro-2H-pyran-4-yl)thio)methyl)-3,4-dihydroquinazolin-7-yl)oxy)methyl)piperidin-1-yl)azetidin-1-yl)piperidin-1-yl)phenyl)dihydropyrimidine-2,4(1H,3H)-dione] | < 30 nM
12 | O=C1CCC(Nc2ccc(N3CCC(C(=O)N4CCC(N5CCC(COc6cc(F)c7c(=O)[nH]c(CCC8CCOCC8)nc7c6)CC5)CC4)CC3)c(F)c2)C(=O)N1 (centres unmarked) [Example 175, 3-((3-fluoro-4-(4-(4-(((5-fluoro-4-oxo-2-(2-(tetrahydro-2H-pyran-4-yl)ethyl)-3,4-dihydroquinazolin-7-yl)oxy)methyl)-[1,4′-bipiperidine]-1′-carbonyl)piperidin-1-yl)phenyl)amino)piperidine-2,6-dione] | < 30 nM
13 | O=C1CCC(Nc2ccc(N3CCN(CCN4CCC(COc5cc(F)c6c(=O)[nH]c(COC7CCOCC7)nc6c5)CC4)CC3)c(F)c2)C(=O)N1 (single isomer, unassigned) [Example 99a, 3-((3-fluoro-4-(4-(2-(4-(((5-fluoro-4-oxo-2-(((tetrahydro-2H-pyran-4-yl)oxy)methyl)-3,4-dihydroquinazolin-7-yl)oxy)methyl)piperidin-1-yl)ethyl)piperazin-1-yl)phenyl)amino)piperidine-2,6-dione] | < 30 nM
14 | O=C1CCC(Nc2ccc(N3CCC(N4CCC(N5CCC(COc6cc(F)c7c(=O)[nH]c(CSC8CCOCC8)nc7c6)CC5=O)CC4)CC3)c(F)c2)C(=O)N1 (centres unmarked) [Example 214, 3-((3-fluoro-4-(4-(((5-fluoro-4-oxo-2-(((tetrahydro-2H-pyran-4-yl)thio)methyl)-3,4-dihydroquinazolin-7-yl)oxy)methyl)-2-oxo-[1,4′:1′,4″-terpiperidin]-1″-yl)phenyl)amino)piperidine-2,6-dione formate] | < 30 nM
15 | O=C1CCC(Nc2ccc(N3CC(N4CCC(CCOc5cc(F)c6c(=O)[nH]c(CSC7CCOCC7)nc6c5)CC4)C3)cc2)C(=O)N1 (centres unmarked) [Example 127, 3-((4-(3-(4-(2-((5-fluoro-4-oxo-2-(((tetrahydro-2H-pyran-4-yl)thio)methyl)-3,4-dihydroquinazolin-7-yl)oxy)ethyl)piperidin-1-yl)azetidin-1-yl)phenyl)amino)piperidine-2,6-dione] | < 30 nM
16 | O=C1CCC(Nc2ccc(N3CCC(N4CCC(CN5CCC(COc6cc(F)c7c(=O)[nH]c(CSC8CCOCC8)nc7c6)CC5)CC4)CC3)c(F)c2)C(=O)N1 (centres unmarked) [Example 224, 3-((3-fluoro-4-(4-((4-(((5-fluoro-4-oxo-2-(((tetrahydro-2H-pyran-4-yl)thio)methyl)-3,4-dihydroquinazolin-7-yl)oxy)methyl)piperidin-1-yl)methyl)-[1,4′-bipiperidin]-1′-yl)phenyl)amino)piperidine-2,6-dione] | < 30 nM
17 | O=C1CCC(Nc2ccc(N3CCN(C4CCN(CCOc5cc(F)c6c(=O)[nH]c(CSC7CCOCC7)nc6c5)CC4)CC3)c(F)c2)C(=O)N1 (centres unmarked) [Example 126] | < 30 nM
18 | O=C1CCN(c2ccc(N3CCC(N4CCC(COc5cc(F)c6c(=O)[nH]c(CSC7CCOCC7)nc6c5)CC4)CC3)c(F)c2)C(=O)N1 [Example 158, 1-(3-fluoro-4-(4-(((5-fluoro-4-oxo-2-(((tetrahydro-2H-pyran-4-yl)thio)methyl)-3,4-dihydroquinazolin-7-yl)oxy)methyl)-[1,4′-bipiperidin]-1′-yl)phenyl)dihydropyrimidine-2,4(1H,3H)-dione formate] | < 30 nM
19 | CN(c1ccc(NC2CCC(=O)NC2=O)cc1F)C1CC(CN2CCC(COc3cc(F)c4c(=O)[nH]c(CSC5CCOCC5)nc4c3)CC2)C1 (centres unmarked) [Example 147, 3-((3-fluoro-4-((3-((4-(((5-fluoro-4-oxo-2-(((tetrahydro-2H-pyran-4-yl)thio)methyl)-3,4-dihydroquinazolin-7-yl)oxy)methyl)piperidin-1-yl)methyl)cyclobutyl)(methyl)amino)phenyl)amino)piperidine-2,6-dione] | < 30 nM
20 | O=C1CCC(Nc2ccc(NC(=O)[C@H]3CCN(CCN4CCC(COc5cc(F)c6c(=O)[nH]c(COC7CCOCC7)nc6c5)CC4)C3)c(F)c2)C(=O)N1 (stereo partly drawn) [Example 199, (3S)-N-(4-((2,6-dioxopiperidin-3-yl)amino)-2-fluorophenyl)-1-(2-(4-(((5-fluoro-4-oxo-2-(((tetrahydro-2H-pyran-4-yl)oxy)methyl)-3,4-dihydroquinazolin-7-yl)oxy)methyl)piperidin-1-yl)ethyl)pyrrolidine-3-carboxamide] | < 30 nM
